For data set [1], the system named is WT and TAAR1-KO mice. Nature of the data set: Open-field test: baseline locomotion and MK-801-induced hyperlocomotion. It is filed as in vivo. The settings on record: compound 65 1 mg/kg, risperidone 0.03 mg/kg. As to the method: To assess the influence of the compound on baseline locomotion and MK-801–induced hyperlocomotion, mice were subjected to open-field testing on four occasions separated by 96 hours. The first occasion was a mock test session where all mice were injected with vehicle only, serving to reduce the effect of novelty on subsequent sessions. The next three sessions were true test sessions with pretreatment of either compound 65, risperidone, or vehicle, followed by MK-801. The R package agricolae was used to generate a randomized block design, randomizing treatment order across sex, genotype, and test session. After injection with either compound 65 (1 mg/kg), risperidone (0.03 mg/kg), or vehicle intraperitoneally, mice were immediately placed in the open field and recorded for 15 min. They were then injected with MK-801 (0.35 mg/kg intraperitoneal) and recorded again for 60 min. The OFT arena measured 46 cm by 46 cm with gray floor and walls. The brightness at the center of each arena was 30 to 50 lux. The arenas were cleaned with 70% ethanol between each animal. Video from a camera mounted in the ceiling was analyzed using EthoVision XT11.5 (Noldus) software.

A short description of data set [2]: Metabolic stability in liver microsomes. The settings on record: mouse liver microsomes, 1 μM.
The target in another data set is T1, hTAAR1 (Homo sapiens, UniProt Q96RJ0).
T1 construct: expressed in transfected cells; host or cells: Expi293F
T1 sequence (Q96RJ0 1-339): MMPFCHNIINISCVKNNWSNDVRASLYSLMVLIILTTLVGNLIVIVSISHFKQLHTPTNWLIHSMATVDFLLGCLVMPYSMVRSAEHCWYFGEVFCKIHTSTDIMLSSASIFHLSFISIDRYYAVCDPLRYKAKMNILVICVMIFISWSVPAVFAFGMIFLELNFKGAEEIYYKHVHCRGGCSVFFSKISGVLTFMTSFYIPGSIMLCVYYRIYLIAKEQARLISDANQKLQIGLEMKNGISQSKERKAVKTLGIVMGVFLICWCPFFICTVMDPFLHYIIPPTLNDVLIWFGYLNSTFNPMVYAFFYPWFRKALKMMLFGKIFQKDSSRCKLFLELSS
Nature of the data set: G protein (mini-Gs) recruitment luminescence complementation assay, agonist mode. It is filed as cell-based. As to the method:
The 62 predicted ligands were purchased from commercial vendors and tested for activity at a concentration of 20 μM in a luminescence complementation–based assay measuring recruitment of mini-Gs to the human TAAR1 ([38]).
To monitor TAAR1 activation by compounds, we used our previously described system. […] Cells were then reseeded in solid white, 96-well plates (Corning) with 90 μl of cell suspension per well. Luminescence was read using a plate reader for 5 min (SPARK 10 M, Tecan) before the addition of compounds to ensure signal stability. Ten microliters of each compound diluted in DPBS was added, and luminescence from each well was read for 10 min, with 100-ms read time per well. The A2AR counter-screen was performed using the same protocol. In these experiments, the hTAAR1 was replaced by a C-terminally SmBiT-tagged hA2AR construct.

In another data set the target is T2, H1 receptor (Homo sapiens, UniProt P35367).
T2 construct: TANGO fusion module (own knowledge, Kroeze et al.: C-terminal V2 tail, TEV site and tTA); 1000000068; host or cells: HTLA (HEK293-derived)
T2 sequence (P35367 whole entry, the tested form may be a part): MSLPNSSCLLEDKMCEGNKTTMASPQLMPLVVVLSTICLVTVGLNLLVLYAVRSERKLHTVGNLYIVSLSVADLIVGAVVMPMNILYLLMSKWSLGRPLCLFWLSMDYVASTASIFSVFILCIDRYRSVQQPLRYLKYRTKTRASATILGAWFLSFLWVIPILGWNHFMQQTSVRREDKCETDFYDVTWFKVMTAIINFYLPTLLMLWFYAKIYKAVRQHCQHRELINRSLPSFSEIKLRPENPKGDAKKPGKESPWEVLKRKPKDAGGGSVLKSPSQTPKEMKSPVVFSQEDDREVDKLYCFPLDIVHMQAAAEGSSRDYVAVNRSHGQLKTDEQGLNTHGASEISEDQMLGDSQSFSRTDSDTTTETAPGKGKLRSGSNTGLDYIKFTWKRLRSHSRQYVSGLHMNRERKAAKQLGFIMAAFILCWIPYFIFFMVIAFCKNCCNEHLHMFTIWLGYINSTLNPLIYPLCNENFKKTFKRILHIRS
Kind of data set: PRESTO-TANGO β-arrestin recruitment. It is filed as cell-based. Particulars: concentration-response curves (fig. S10).

The test system of data set [3] is WT and TAAR1-KO mice. Nature of the data set: Accelerating rotarod test. It is filed as in vivo. Particulars: 1 mg/kg i.p., 30 min after injection. The protocol:
To test compound 65 for sedative effects, mice were subjected to the accelerating rotarod test as previously described ([77]), with minor modifications. Mice were acclimatized to the rotarod (Ugo Basile, Gemonio, Italy) for 2 days before testing, starting at 4 rotations per minute (RPM) and accelerating to 40 RPM over 300 s. A baseline measure of performance, defined as the latency to fall from the rotarod with a cutoff time of 300 s, was taken before injection with either compound 65 (1 mg/kg), xylazine (5 mg/kg), or vehicle intraperitoneally. The mice were then retested 30 min after injection.

Data set [4] deals with WT and TAAR1-KO mice. Nature of the data set: Pre-pulse inhibition (PPI) behavioral assay. It is filed as in vivo. The settings on record: compound 65 1 mg/kg, risperidone 0.2 mg/kg i.p. As to the method: Measurements were performed using startle response chambers (San Diego Instruments, San Diego, CA, USA). Each chamber is sound-isolated and contains a Plexiglass animal enclosure attached to a platform and a loudspeaker that can produce both continuous white noise and acoustic pulses of varying intensities. The animal enclosure is large enough for the animal to turn around and make other movements to reduce restraint stress. Mouse startle responses to acoustic stimuli are transformed by a piezoelectric transducer under the platform into an analog signal. The transducers were calibrated before each experiment using a standardization unit (San Diego Instruments, San Diego, CA, USA), and the speakers were calibrated using a Type 2670 Microphone Preamplifier, a Type 4230 Sound Level Calibrator, and a Type 2610 Measuring Amplifier (Brüel & Kjær, Nærum, Denmark). To habituate the mice to the chambers, they were placed in the enclosure for 5 min, with 65-dB background white noise, on three different days before the start of experiments. PPI measurements were then conducted on each mouse on four occasions separated by 96 hours. The first occasion was a mock test session where all mice were injected with vehicle, serving to reduce the effect of novelty on subsequent sessions. The next three sessions were true test sessions with injection of either compound 65, risperidone, or vehicle. The R package agricolae was used to generate a randomized block design, randomizing treatment order across sex, genotype, and test session.
Animals were brought to the testing room for habituation 60 min before the starting of tests. Thirty minutes before PPI measurements, mice were injected with either compound 65 (1 mg/kg), risperidone (0.2 mg/kg), or vehicle intraperitoneally. Each test session started with a 5-min background noise (65-dB white noise) habituation period. The background noise continued throughout the test session. The habituation period was followed by four blocks of trials, with the first and last blocks consisting of five pulse-only trials (40-ms, 120-dB pulse). During block 2, five trial types were presented five times each in a pseudo-randomized order. The trial types included pulse only, no stimulus (NOSTIM), and three different pre-pulse trials in which 20 ms pre-pulses of different intensities (68, 71, or 77 dB) preceded the startle pulse (120 dB) by a 100-ms interval. Block 3 contained the same numbers and types of trials as block 2, but in a different pseudorandom order. […] PPI data are shown as PPI%, which was calculated as [1 − (pre-pulse trials/startle-only trials)] × 100. Mean PPI was calculated by adding the average PPI% for all pre-pulse intensities (3, 6, and 12 dB) and dividing it by the number (i.e., 3) of pre-pulse intensities.

Some results are limits rather than exact numbers.

Protocol for H1 receptor: Assessment of receptor activation by compounds at all human aminergic receptors were carried out using a modified version of the PRESTO-TANGO method. […] The plate was spun down, and 5 μl of a 1:25 dilution (in DPBS) of polyethylenimine (PEI) derivative (Transporter 5, Polysciences) was added (1:4 cDNA to PEI ratio) and incubated for 20 min at room temperature (RT). […] Luminescence signal was detected using a plate-reader (SPARK, Tecan) with 100-ms integration time and a 100-ms delay between well reads.

As to `CC1=C(c2ccco2)CNCC1` [Compound 65], in the data set on WT and TAAR1-KO mice [1] (TAAR1-KO mice), the effect on locomotion result is recorded as “did not exhibit such an effect”. Moreover, the “effect on MK-801–induced hyperlocomotion” value in the data set with WT and TAAR1-KO mice [1] (WT mice, MK-801 0.35 mg/kg) was “significant decrease”. Also, the “effect on baseline locomotion” value in the data set on WT and TAAR1-KO mice [1] (WT mice, versus vehicle) is “trend toward decreased locomotion”. For the same molecule, the “intrinsic clearance CLint” value in data set [2] is given as 7 μl/min per mg. The EC50 on hTAAR1 (TAAR1, G protein recruitment assay, read-out: pEC50 (converted)) is 25.1 nM. Moreover, on hTAAR1 (TAAR1 G protein recruitment), the “fold more potent than Ulotaront” value is listed as over 25 fold. Further, the “agonism at the H1 receptor” value on H1 receptor was “lacked agonism”. Further, the “effect on rotarod performance (sedation)” value in the data set with WT and TAAR1-KO mice [3] was “did not influence rotarod performance”. Moreover, the “effect on PPI” value with WT and TAAR1-KO mice [4] (TAAR1-KO mice) is “did not observe any change in PPI”; with WT and TAAR1-KO mice [4] (WT mice), “elevated PPI at both 3- and 6-dB pre-pulse levels”.
